In general, MIC refers to the lowest concentration that inhibits growth of the organism.

SMILES strings stand for the structures. Converted amounts (≈) assume the structure as drawn.

Drawing on patent US11286258B2, “Nature-inspired anticancer and antibacterial motifs and pharmaceutical composition thereof” (University of Sharjah, priority 2020, dated 2022), this text covers MIC for 2 compounds.

The test system of assay [1] is MRSA-1 (clinical isolate). Kind of assay: MIC broth microdilution, MRSA-1. In kind it is cell-based, Staphylococcus aureus. Conditions: Staphylococcus aureus, MRSA; overnight incubation, Mueller-Hinton broth; read-out: MIC MRSA-1 (clinical isolate). Here is the method:
(§1) Antibacterial activity: The compounds were tested for the minimum inhibitory concentrations (MIC), which is the lowest concentration of a chemical required to inhibit visible microbial growth following overnight incubation. MIC values were determined using broth microdilution method according to the Clinical and Laboratory Standards Institute guidelines (CLSI, 2015, M07-A10). Mueller-Hinton broth was used as a culture medium in all the experiments. Exponentially growing bacterial cells were prepared in Mueller-Hinton broth at a concentration of approximately 5×10^5 CFU/mL. Two-fold serial dilutions of the test compound (8 concentrations ranged between 100-0.78 μg/mL) were tested. […] In each experiment, solvent (DMSO) was used as a negative control, un-treated control (composing of bacteria in Mueller-Hinton broth) was used as a growth control, blank (culture media alone) was used as sterility control. The 96-well microplate with the test compounds was incubated overnight at 37° C. Turbidity in wells indicated bacterial growth.
(§2) The compounds were tested on six MDR Gram-positive bacteria including three clinical isolates of methicillin-resistant Staphylococcus aureus (MRSA-1, MRSA-2 and MRSA-3) and three reference MRSA strains (ATCC33591, ATCC33592 and ATCC700699). They were also tested on three MDR Gram-negative bacteria including New Delhi metallo-beta-lactamase (NDM-1) positive, carbapenem-resistant E. coli (ATCC BAA2469), extended-spectrum beta-lactamase (ESBL) producing, colistin-resistant E. coli (CDC-AR-0346) and carbapenem-resistant Acinetobacter baumannii (ATCC BAA1605), in addition to two non-MDR bacteria from the same species, namely E. coli (ATCC 25922) Acinetobacter baumannii (ATCC 19606).
For orientation: Broth dilution looks for growth in wells or tubes with falling amounts of substance.

In assay [2] the test system is MRSA-2 (clinical isolate). Kind of assay: MIC broth microdilution, MRSA-2. In kind it is cell-based, Staphylococcus aureus. Conditions: Staphylococcus aureus, MRSA; overnight incubation, Mueller-Hinton broth; read-out: MIC MRSA-2 (clinical isolate). Here is the method: as §1, §2
Assay [3] deals with MRSA-3 (clinical isolate). Description: MIC broth microdilution, MRSA-3. Conditions: Staphylococcus aureus, MRSA; overnight incubation, Mueller-Hinton broth; read-out: MIC MRSA-3 (clinical isolate). It counts as cell-based, Staphylococcus aureus. Here is the method:
as §1, §2

The subject of another assay is MRSA-ATCC33591. Kind of assay: MIC broth microdilution, MRSA ATCC33591. It counts as cell-based, Staphylococcus aureus. As to conditions: Staphylococcus aureus; overnight incubation, Mueller-Hinton broth; read-out: MIC MRSA-ATCC33591. Here is the method: as §1, §2
The test system of a further assay is MRSA-ATCC33592. Description: MIC broth microdilution, MRSA ATCC33592. In kind it is cell-based, Staphylococcus aureus. As to conditions: Staphylococcus aureus; overnight incubation, Mueller-Hinton broth; read-out: MIC MRSA-ATCC33592. As for the experimental part: as §1, §2
For the next assay, the system named is MRSA-ATCC700699 (VISA). Description: MIC broth microdilution, MRSA ATCC700699 (VISA). It counts as cell-based, Staphylococcus aureus. Conditions: Staphylococcus aureus; strain intermediately resistant to vancomycin; overnight incubation; read-out: MIC MRSA-ATCC700699 (VISA). Here is the method:
as §1, §2

In a further assay the test system is E. coli ATCC25922. Description: MIC broth microdilution, E. coli ATCC25922. As to conditions: Escherichia coli, ATCC25922; not MDR; overnight incubation. It counts as cell-based, Escherichia coli. Here is the method:
as §1, §2

In assay [4] the test system is E. coli ATCC BAA2469 (NDM-1 carbapenem-resistant). Description: MIC broth microdilution, E. coli ATCC BAA2469. It counts as cell-based, Escherichia coli. As to conditions: Escherichia coli, ATCCBAA2469, MDR; overnight incubation. Here is the method: as §1, §2
Assay [5] has as its system E. coli CDC-AR-0346 (ESBL, colistin resistant). Kind of assay: MIC broth microdilution, E. coli CDC-AR-0346. In kind it is cell-based, Escherichia coli. Conditions: Escherichia coli; MDR; overnight incubation. Here is the method: as §1, §2
Assay [6] concerns Acinetobacter baumannii ATCC 19606. Description: MIC broth microdilution, A. baumannii ATCC 19606. Conditions: Acinetobacter baumannii, ATCC19606; not MDR; overnight incubation. In kind it is cell-based. As for the experimental part:
as §1, §2

Assay [7] has as its system Acinetobacter baumannii ATCC BAA1605 (carbapenem-resistant). Description: MIC broth microdilution, A. baumannii ATCC BAA1605. It counts as cell-based. Conditions: Acinetobacter baumannii, ATCCBAA1605, MDR; overnight incubation. As for the experimental part:
as §1, §2

For another assay, the system named is 6 MRSA strains. Kind of assay: MIC, panel of 6 MRSA strains. In kind it is cell-based. Conditions: Staphylococcus aureus, across the panel of tested Gram-positive strains, read-out: MIC against all the 6 MRSA strains. As for the experimental part:
as §1, §2

The subject of another assay is MDR E. coli strains. Kind of assay: MIC, both MDR E. coli strains. It counts as cell-based. Conditions: Escherichia coli, ATCCBAA2469; across ATCC BAA2469 and CDC-AR-0346. Here is the method: as §1
The compounds were tested on six MDR Gram-positive bacteria including three clinical isolates of methicillin-resistant Staphylococcus aureus (MRSA-1, MRSA-2 and MRSA-3) and three reference MRSA strains (ATCC33591, ATCC33592 and ATCC700699). […]

As for `NCC[C@H](O)C(=O)N[C@@H]1C[C@H](N)[C@@H](O[C@H]2O[C@H](CN)[C@@H](O)[C@H](O)[C@H]2O)[C@H](O)[C@H]1O[C@H]1O[C@H](CO)[C@@H](O)[C@H](N)[C@H]1O` [Amikacin, reference compound], the MIC in assay [1] is 16 µg/mL (≈ 27.3 µM); in assay [2], 8 µg/mL (≈ 13.7 µM); in [3], 2 µg/mL (≈ 3.42 µM); with MRSA-ATCC33591, 50 µg/mL (≈ 85.4 µM); in the assay on MRSA-ATCC33592, 50 µg/mL (≈ 85.4 µM); with MRSA-ATCC700699 (VISA), 100 µg/mL (≈ 171 µM). The MIC against E. coli ATCC25922 is 2.5 µg/mL (≈ 4.27 µM); in [4], above 1000 µg/mL; in assay [5], above 1000 µg/mL; in assay [6], 10 µg/mL (≈ 17.1 µM); in assay [7] it was 1.25 µg/mL (≈ 2.13 µM); with 6 MRSA strains, 2 to 100 µg/mL (≈ 3.42 to 171 µM). In the assay with MDR E. coli strains, this compound had an MIC above 1000 µg/mL.
Regarding `O=C(O)c1cn(C2CC2)c2cc(N3CCNCC3)c(F)cc2c1=O` [Ciprofloxacin, reference compound], the MIC was 0.3 µg/mL (≈ 0.905 µM) with MRSA-ATCC33591; 0.3 µg/mL (≈ 0.905 µM) in the assay with MRSA-ATCC33592; below 0.02 µg/mL with E. coli ATCC25922; 100 µg/mL (≈ 302 µM) in [4]; 0.625 µg/mL (≈ 1.89 µM) in [6]; 50 µg/mL (≈ 151 µM) in assay [7]. Moreover, the MIC was 0.3 to 32 µg/mL (≈ 0.905 to 96.6 µM) in the assay on 6 MRSA strains and 16 to 100 µg/mL (≈ 48.3 to 302 µM) in the assay on MDR E. coli strains.
